Experimental data: the supplement of paper PMC12613149

How the values were obtained:
[1] = collision cross section (TIMS, N2 drift gas) of the primary ion; higher = larger gas-phase ion size
[2] = reversed-phase LC retention time (C18, 15 min MeOH gradient); higher = more hydrophobic / later elution
[3] = ionization mode: ESI+, ion species: [M+H]+
[4] = ionization mode: ESI-, ion species: [M-H]-
[5] = ionization mode: ESI+, ion species: [M]+

| collision cross section [1, 3] [Å²] | reversed-phase LC retention time [2, 3] [min] | collision cross section [1, 4] [Å²] | reversed-phase LC retention time [2, 4] [min] | collision cross section [1, 5] [Å²] | reversed-phase LC retention time [2, 5] [min] | Structure (SMILES) |
| --- | --- | --- | --- | --- | --- | --- |
| 132.33 | 8.73 | – | – | – | – | c1ccc2nc3ccccc3cc2c1 [Acridine] |
| 124.95 | 5.92 | – | – | – | – | Nc1nc2ccccc2[nH]1 [2-Aminobenzimidazole] |
| 202.11 | 7.84 | 197.99 | 13.2 | – | – | CCC[C@@H]1C[C@@H](C(=O)N[C@@H]([C@H]2O[C@H](SC)[C@H](O)[C@@H](O)[C@H]2O)[C@@H](C)O)N(C)C1 [Lincomycin] |
| 156.86 | 12.5 | 156.09 | 11.7 | – | – | O=c1oc2cc(O)ccc2c2oc3cc(O)ccc3c12 [Coumestrol] |
| 228.01 | 20.1 | – | – | – | – | CC(C)CCCCCCOC(=O)C1CCCCC1C(=O)OCCCCCCC(C)C (configuration not stated) [DINCH] |
| 131.58 | 7.51 | – | – | – | – | Cc1cc(=O)[nH]c(C(C)C)n1 [2-Isopropyl-6-methyl-pyrimidin-4-ol] |
| 227.75 | 12 | 219.66 | 14.9 | – | – | CCCc1nc(C)c2c(=O)nc(-c3cc(S(=O)(=O)N4CCN(CC)CC4)ccc3OCC)[nH]n12 [Vardenafil] |
| 171.35 | 13 | – | – | – | – | CNCCC(Oc1cccc2ccccc12)c1cccs1 (configuration not stated) [Duloxetine] |
| 200.98 | 16.3 | – | – | – | – | C#C[C@]1(OC(C)=O)CC[C@H]2[C@@H]3CCC4=C/C(=N/O)CC[C@@H]4[C@H]3CC[C@@]21CC [Norgestimate] |
| 148.57 | 5.19 | 148.72 | 6.1 | – | – | O=S(=O)(O)CCNC1CCCCC1 [2-(Cyclohexylamino)-ethansulfonic acid] |
| – | – | – | – | 170.42 | 10.6 | COC[P+](c1ccccc1)(c1ccccc1)c1ccccc1 [(Methoxymethyl)triphenylphosphonium] |
| 199.59 | 15.4 | – | – | – | – | CC(=O)O[C@]1(C(C)=O)CC[C@H]2[C@@H]3C[C@H](C)C4=CC(=O)CC[C@]4(C)[C@H]3CC[C@@]21C [Medroxyprogesteroneacetate] |
| – | – | – | – | 127.94 | 1.03 | C[N+](C)(C)CC(O)CCl (configuration not stated) [(3-Chloro-2-hydroxypropyl)trimethylammonium] |
| – | – | 171.71 | 16.3 | – | – | Oc1c(Br)cc(Cl)cc1Cc1cc(Cl)cc(Br)c1O [Bromochlorophen] |
| 168.31 | 8 | – | – | – | – | Nc1nc(NC2CC2)c2ncn([C@H]3C=C[C@@H](CO)C3)c2n1 [Abacavir] |
| – | – | 141.48 | 12.8 | – | – | O=S(=O)(O)C(F)(F)C(F)(F)C(F)(F)C(F)(F)C(F)(F)F [Perfluoropentanesulfonic acid] |
| 216.68 | 15.5 | 216.5 | 16 | – | – | CCCCC(=O)O[C@]1(C(=O)CO)[C@@H](C)C[C@H]2[C@@H]3CCC4=CC(=O)C=C[C@]4(C)[C@@]3(F)[C@@H](O)C[C@@]21C [Betamethasone-17-valerate] |
| 172.6 | 13.1 | – | – | – | – | CC(C)(C)C(=O)C(Oc1ccc(Cl)cc1)n1ccnc1 (configuration not stated) [Climbazole] |
| 163.17 | 14.4 | – | – | – | – | CSc1nc(NC2CC2)nc(NC(C)(C)C)n1 [Irgarol] |
| 162.95 | 11.6 | – | – | – | – | CN(C)CCOC(c1ccccc1)c1ccccc1 [Diphenhydramine] |
| – | – | 232.73 | 17.6 | – | – | O=P(O)(OCCC(F)(F)C(F)(F)C(F)(F)C(F)(F)C(F)(F)C(F)(F)F)OCCC(F)(F)C(F)(F)C(F)(F)C(F)(F)C(F)(F)C(F)(F)F [6:2 Fluorotelomer phosphate diester] |

| collision cross section [1, 3] [Å²] | reversed-phase LC retention time [2, 3] [min] | collision cross section [1, 4] [Å²] | reversed-phase LC retention time [2, 4] [min] | collision cross section [1, 5] [Å²] | reversed-phase LC retention time [2, 5] [min] | Structure (SMILES) |
| --- | --- | --- | --- | --- | --- | --- |
| 142.36 | 12.2 | – | – | – | – | CCNc1ccc2c(C)cc(=O)oc2c1 [7-(Ethylamino)-4-methylcoumarin] |
| 140.79 | 7.22 | 140.22 | 8.55 | – | – | CCNc1nc(NCC)[nH]c(=O)n1 [Simazine 2-Hydroxy] |
| 132.43 | 5.53 | – | – | – | – | Cc1ncc([N+](=O)[O-])n1CCO [Metronidazole] |
| 179.03 | 14 | 181.16 | 12.3 | – | – | CC(C)(Oc1ccc(CCNC(=O)c2ccc(Cl)cc2)cc1)C(=O)O [Bezafibrate] |
| 187.9 | 13.4 | – | – | – | – | CCN(CC)CC#CCOC(=O)C(O)(c1ccccc1)C1CCCCC1 (configuration not stated) [Oxybutynin] |
| 124.53 | 6.72 | 122.52 | 6.7 | – | – | Oc1ccnc2ccccc12 [4-Hydroxyquinoline] |
| 192.43 | 13.3 | 194.28 | 13.6 | – | – | C[C@H]1C[C@H]2[C@@H]3CCC4=CC(=O)C=C[C@]4(C)[C@@]3(Cl)[C@@H](O)C[C@]2(C)[C@@]1(O)C(=O)CO [Beclomethasone] |
| 186.48 | 8.4 | – | – | – | – | CCN1CCN(c2cc3c(cc2F)c(=O)c(C(=O)O)cn3C2CC2)CC1 [Enrofloxacin] |
| 177.09 | 14.6 | – | – | – | – | O=C(/C=C/C=C/c1ccc2c(c1)OCO2)N1CCCCC1 [Piperine] |
| 153.28 | 16.1 | – | – | – | – | c1ccc(Nc2cccc3ccccc23)cc1 [N-Phenyl-1-naphthylamine] |
| 186.88 | 13.7 | 184.96 | 11.8 | – | – | COc1nc(NC(=O)NS(=O)(=O)c2ccccc2C(F)(F)F)nc(C(F)(F)F)n1 [Tritosulfuron] |
| 162.88 | 11.3 | – | – | – | – | CC(C)NCC(O)COc1cccc2ccccc12 (configuration not stated) [Propanolol] |
| 158.9 | 13.2 | 163.97 | 12.2 | – | – | COc1ccc(-c2coc3cc(O)ccc3c2=O)cc1 [Formononetin] |
| – | – | 175.12 | 17.2 | – | – | CCCCCCCCCCCCCCOS(=O)(=O)O [Tetradecylsulfate] |
| 138.02 | 8.4 | – | – | – | – | Cc1cc(O)cc(C)c1S(C)=O (configuration not stated) [Methiocarb-sulfoxide phenol] |
| – | – | 133.88 | 6.69 | – | – | CCCc1cc(=O)[nH]c(=S)[nH]1 [6-Propyl-2-thiouracil] |
| – | – | – | – | 217.87 | 16.9 | CCCCCCCCCCCCCC(=O)NCCC[N+](C)(C)CCCS(=O)(=O)O [Amidosulfobetaine-14] |
| – | – | – | – | 272.56 | 21.1 | CCCCCCCCCCCCCCCCCC[N+](C)(C)CCCCCCCCCCCCCCCCCC [Dimethyldioctadecylammonium] |
| – | – | – | – | 213.31 | 17.8 | CCCCCCCCCCCCCCCC[N+](C)(C)Cc1ccccc1 [Benzyldimethylhexadecylammonium] |
| 143.53 | 8.22 | – | – | – | – | Nc1ccc2nc3ccc(N)cc3nc2c1 [2,8-Diaminophenazine] |

| Structure (SMILES) | collision cross section [1, 3] [Å²] | reversed-phase LC retention time [2, 3] [min] | collision cross section [1, 4] [Å²] | reversed-phase LC retention time [2, 4] [min] | collision cross section [1, 5] [Å²] | reversed-phase LC retention time [2, 5] [min] |
| --- | --- | --- | --- | --- | --- | --- |
| C#C[C@]1(O)C=C[C@H]2[C@@H]3CCC4=CC(=O)CC[C@@H]4[C@H]3CC[C@@]21CC [Gestoden] | 181.55 | 14 | – | – | – | – |
| C[C@]12CC(=O)[C@H]3[C@@H](CCC4=CC(=O)CC[C@@]43C)[C@@H]1CC[C@@H]2O [11-Ketotestosterone] | 174.04 | 12.6 | – | – | – | – |
| CNC1=C(c2cccc(C(F)(F)F)c2)C(=O)C(c2ccccc2)O1 (configuration not stated) [Flurtamone] | 179.28 | 13.9 | 175.08 | 14.2 | – | – |
| CC1(C)CON(Cc2ccccc2Cl)C1=O [Clomazon] | 146.86 | 13.5 | – | – | – | – |
| CC1=NNC(=O)N(/N=C/c2cccnc2)C1 [Pymetrozine] | 153.68 | 5.8 | – | – | – | – |
| O=P(OC(CCl)CCl)(OC(CCl)CCl)OC(CCl)CCl [TDCPP] | 177.62 | 15.5 | – | – | – | – |
| COC(=O)N(C(=O)N1CO[C@@]2(C(=O)OC)Cc3cc(Cl)ccc3C2=N1)c1ccc(OC(F)(F)F)cc1 [Indoxacarb] | 206.73 | 16.2 | – | – | – | – |
| O=C(O)C(F)(F)C(F)(F)C(F)(F)C(F)(F)C(F)(F)C(F)(F)C(F)(F)C(F)(F)C(F)(F)F [Perfluorodecanoic acid] | – | – | 173.66 | 16 | – | – |
| O=C1CC2(CCCCC2)CN1 [Gabapentin-Lactam] | 135.35 | 11.2 | – | – | – | – |
| NC(=O)/N=C1\SCCN1Cc1ccc(Cl)nc1 [Thiacloprid amide] | 159.22 | 8.75 | – | – | – | – |
| CCC(CC)Nc1c([N+](=O)[O-])cc(C)c(C)c1[N+](=O)[O-] [Pendimethalin] | 160.71 | 17.1 | – | – | – | – |
| N#Cc1cc(Br)c(O)c(Br)c1 [3,5-Dibromo-4-hydroxybenzonitrile] | – | – | 129.33 | 8.01 | – | – |
| Cc1cccc(C)c1N [2,6-Xylidine] | 117.81 | 17.9 | – | – | – | – |
| Cn1sc(Cl)cc1=O [Methylchloroisothiazolinone] | 120.77 | 7.46 | – | – | – | – |
| O=C1C=C(N(Cc2ccc(Cl)nc2)CC(F)F)CO1 [Flupyradifurone] | 164.36 | 9.35 | 163.3 | 9.46 | – | – |
| CCCCCCCCCCCCN(C)C [N,N-Dimethyldodecylamine] | 169.68 | 15.4 | – | – | – | – |
| OC(Cn1cncn1)(c1ccc(F)cc1)c1ccccc1F (configuration not stated) [Flutriafol] | 167.74 | 12.9 | – | – | – | – |
| CCNc1nc(O)nc(NC(C)C)n1 [2-Hydroxyatrazine] | 147.52 | 8.5 | 146.65 | 10.7 | – | – |
| CCC(=NOC/C=C/Cl)C1=C(O)CC(C2CCOCC2)CC1=O (configuration not stated) [Tepraloxydim (two peaks)] | 186.68 | 14.7 | 181.89 | 9.17 | – | – |
| CCS(=O)CCSP(=O)(OC)OC (configuration not stated) [Demeton-S-methyl sulfoxide] | 142.73 | 7.58 | – | – | – | – |
